US20230105693A1, “ANTIMICROBIAL COMPOSITIONS” (Firmenich SA, priority 2020, published 2023)
Read-outs that look alike come from different tables or passages of the source.

Legend:
[1] = tested on: Escherichia coli ATCC 10536; test: Robotic BCT test of perfume ingredients in model surfactant bases; assay type: cell-based; conditions: for log reduction at 0.5 %: Escherichia coli, ATCC10536, 45 s; for Log reduction (Log CFU/mL) Base 3: Base 3: SLES 1.5%, coco-glucoside 0.75%; for Log reduction (Log CFU/mL) Base 4: Base 4: SLES 2.25%, sodium xylene sulfonate 3%
Method: The surfactant bases tested included 1) sodium lauryl ether sulfate (SLES) and cocamidopropyl betaine (CAPB) at 3:1 mass ratios; 2) SLES, CAPB and coco-glucoside at 2:1:1 mass ratios. Test samples were prepared by mixing perfume ingredients with the surfactant bases and vigorously stirred for 24 hrs. Concentration of perfume ingredients in the bases was 0.5% wt. Samples with transparent appearance were selected for antimicrobial testing.
Antimicrobial efficacy was tested against a representative Gram-negative bacterial strain, Escherichia coli ATCC 10536, using robotic bacteria contact time (BCT) test based on European standard EN-1276 and EP2787827(B1).
Preparation of screening plate and dilution plate: Aliquots (270 µl) of compositions were dispensed into the wells of a 96-well microtiter plate (MTP) along two columns (B1-H1, and B7-H7), and 270 µl of MilliQ water was added to well A1 and A7 as the control samples. This MTP was labelled as the “Screening plate”. In another MTP, labelled as the “Dilution plate”, 270 µL of Dey-Engley (D/E) neutralizing solution was added to column 1 and column 7. 270 µl of tryptone diluent solution was added to columns 2-6 and columns 8-12 of the Dilution MTP by a Hamilton robotic liquid handling station.
BCT test & neutralization & dilution: Bacterial stock (30 µl) was then added to columns 1 of the ‘Screening plate’ and mixed by a Hamilton robotic liquid handling station. After a contact time of 45 seconds, 30 µl of the mixtures in column 1 were transferred into the corresponding wells of column 1 of the ‘Dilution plate’. After neutralizing for 5 minutes in the D/E neutralizing solution, 30 µl of the neutralized mixtures were transferred from column 1 to column 2 of the Dilution MTP and mixed, followed by transferring 30 µl of the mixtures from column 2 into column 3. This process was repeated serially diluting the bacteria suspensions across the plate to column 6. Bacterial stock (30 µl) was then added to columns 7 of the ‘Screening plate’ and mixed by a Hamilton robotic liquid handling station. After a contact time of 45 seconds, 30 µl of the mixtures in column 7 were transferred into the corresponding wells of column 7 of the ‘Dilution plate’. After neutralizing for 5 minutes in the D/E neutralizing solution, 30 µl of the mixtures were transferred from column 7 to column 8 of the Dilution MTP and mixed, followed by transferring further 30 µl mixtures from column 8 into column 9. This process was repeated serially diluting the bacteria suspensions across the plate to column 12.
Plating: 30 µl volumes from each well in the Dilution MTP were transferred onto four Tryptone Soya Agar (TSA) plates. The TSA plates were allowed to stand for about two hours so that the 30 µl inocula spots could dry and the plates were then inverted and incubated overnight at 37° C. for 24 hours. After incubation, colonies were counted.
Calculating log reduction: Select the dilutions with colony counts, and calculate the viable cell counts (CFU/mL) of mixture in ‘Screening plate’, and log reduction against the control MilliQ sample was calculated.

[2] = Equivalent alkane carbon number (EACN) in model microemulsion system; assay type: physicochemical; conditions: C10E5/water/isopropyl myristate model system, 3% wt perfume ingredient
Method: EACN values provide information on polarity and surface activity of apolar ingredients. Tchakalova and Fieber (J. of Surfactants and Detergents, 2012, 15(2):167-177) classified perfume ingredients based on values of EACNmix, the EACN of a mixture consisting of a test perfume ingredient and a reference oil (isopropyl myristate). The same model system and method were used to measure the EACN values of perfume ingredients with antimicrobial activities. Different perfume ingredients were added to the model microemulsion system shown in Table 1, in which the nonionic pentaethylene glycol mono n-decyl ether (C10E5) was used as surfactant. Phase transition temperatures of the system from Winsor I to Winsor III, and from Winsor III to Winsor II were determined using a water bath. Alkanes with different alkane carbon numbers (octane, decane, dodecane and hexadecane) were used to establish a linear correlation curve between EACN and the PIT, which is the average of the transitions from Winsor I to Winsor III, and from Winsor III to Winsor II, respectively. EACNmix was then calculated based on the linear relationship and the measured PIT for systems containing different perfume ingredients. The EACN of the pure perfume ingredient was calculated based on the molar ratio of the tested PRMs in the oil phase using following equation: […]
wherein n and nref are the molar fractions of tested perfume ingredient and the reference ingredient (i.e., isopropyl myristate) in the oil phase, respectively.

physchem = assay type: physicochemical
Method: The partition coefficient (P) is defined as the ratio of the concentrations (C) to the equilibrium of a dissolved and highly diluted substance in a biphasic system consisting of two almost immiscible solvents.
In the case of n-octanol and water:
The partition coefficient P is the quotient of two concentrations, it is generally indicated in its logarithmic form, base 10 (LogP).
The log P values of different perfume ingredients were measured using standard high performance liquid chromatography method, according to the reference (OECD, guideline No. 117, adopted on 13 Apr. 2004, Partition coefficient (n-octanol-water), High Performance Liquid Chromatography (HPLC) Method).

[3] = 0.5% perfume ingredient, Base 1: SLES 1.875%, CAPB 0.625%, contact 45 s, read-out: Log reduction in Base 1 (Log CFU/mL)
[4] = model base 1, table by functional group, read-out: Log reduction in Base 1 (Log CFU/mL)
[5] = n-octanol/water, HPLC method, read-out: Log P
[6] = 0.5% perfume ingredient, CAPB 0.75%, contact 45 s
[7] = 0.5% perfume ingredient, Base 2: SLES 2.25%, CAPB 0.75%, contact 45 s, read-out: Log reduction (Log CFU/mL) Base 2
[8] = model base 1, table by functional group
[9] = 0.5% perfume ingredient, Base 1: SLES 1.875%, CAPB 0.625%, contact 45 s
[10] = 0.5% perfume ingredient, Base 2: SLES 2.25%, CAPB 0.75%, contact 45 s

Molecule | log reduction at 0.5 % [1, 3] | EACN [2] | chromatographic logP (physchem; [5]) | also measured
CCCc1cccc(O)c1 [3-propylphenol] | > 5.5 | <-29.09 | 2.1 | log reduction at 0.5 % [1, 4]: > 5.5
CC(CCO)CCc1ccccc1 (racemic) [(+-)-3-methyl-5-phenyl-1-pentanol] | 5 ± 2.1 | -37.05 | – | Log reduction (Log CFU/mL) Base 3 [1, 6]: 2.9 Log CFU/mL; Log reduction (Log CFU/mL) Base 4 [1, 6]: 2.8 Log CFU/mL; log reduction at 0.5 % [1, 7]: 0; log reduction at 0.5 % [1, 4]: 4.3; chromatographic logP (physchem): 3
COC(=O)c1ccccc1N [methyl 2-aminobenzoate] | – | -22.57 | 1.83 | –
CCOC(=O)/C=C/c1ccccc1 [Ethyl(E)-3-phenyl-2-propenoate] | 1.9 ± 1 | – | 3 | Log reduction (Log CFU/mL) Base 3 [1, 6]: Insoluble; Log reduction (Log CFU/mL) Base 4 [1, 6]: Insoluble; log reduction at 0.5 % [1, 7]: 0
CC/C(CC(C)CC)=N/O (racemic) [(+-)-(3Z)-5-methyl-3-heptanone oxime OR (+-)-(3E)-5-methyl-3-heptanone oxime] | – | -13.67 | – | Log reduction in Base 1 (Log CFU/mL) [1, 8]: 3.3 Log CFU/mL; Log P (physchem): 2.45
Cc1ccc(O)cc1 [4-methylphenol] | 0.1 | <-21.95 | – | chromatographic logP (physchem): 1.52
CCC(C)(O)CCCC(C)C (racemic) [(+-)-3,7-dimethyl-3-octanol] | 1.9 ± 1.6 | -4.83 | 3.78 | Log reduction (Log CFU/mL) Base 3 [1, 6]: 0.3 Log CFU/mL; Log reduction (Log CFU/mL) Base 4 [1, 6]: 0.4 Log CFU/mL; log reduction at 0.5 % [1, 7]: 0
CC/C=C\CCCCCO [(Z)-6-nonen-1-ol] | – | -29.91 | – | Log P (physchem): 3.4
2 /3 //4-(5,5,6-trimethylbicyclo[2.2.1]hept-2-yl)-1-cyclohexanol(A/B/C) + 2-(1,7,7-trimethylbicyclo[2.2.1]hept-2-yl)-1-cyclohexanol (D) | – | -16.52 | – | Log reduction in Base 1 (Log CFU/mL) [1, 9]: 0.4 Log CFU/mL; Log reduction (Log CFU/mL) Base 2 [1, 10]: -1.0 Log CFU/mL; Log reduction (Log CFU/mL) Base 3 [1, 6]: Insoluble; Log reduction (Log CFU/mL) Base 4 [1, 6]: -0.2 Log CFU/mL; Log P (physchem): 5.23
C=C(C)[C@@H]1CC=C(CO)CC1 [(-)-(S)-1,8-P-menthadien-7-ol] | – | -30.83 | – | Log reduction in Base 1 (Log CFU/mL) [1, 9]: 4.2 ± 0.1 Log CFU/mL; Log reduction (Log CFU/mL) Base 2 [1, 10]: 0 Log CFU/mL; Log reduction (Log CFU/mL) Base 3 [1, 6]: 1.4 Log CFU/mL; Log reduction (Log CFU/mL) Base 4 [1, 6]: 2.2 Log CFU/mL; Log reduction in Base 1 (Log CFU/mL) [1, 8]: 4.2 Log CFU/mL; Log P (physchem): 2.68
CC1=CC[C@H]([C@H](C)CCO)CC1 (single isomer, unassigned) | – | -34.57 | – | Log P (physchem): 3.46
CC(C)(O)Cc1ccccc1 [2-methyl-1-phenyl-2-propanol] | -0.1 | -17.89 | 1.84 | –
C/C(=C\c1ccc(C)cc1)CO [(2E)-2-methyl-3-(4-methylphenyl)-2-propen-1-ol] | – | -36.15 | 2.29 | –
O=C1CCC[C@H]2[C@@H]1[C@H]1C=C[C@@H]2C1 (racemic) [(1RS,2SR,7RS,8SR)-tricyclo[6.2.1.0^~2,7^~]undec-9-en-3-one OR (1RS,2RS,7S,8SR)-tricyclo[6.2.1.0^~2, 7^~] undec-9-en-3-one] | – | -5.81 | – | Log P (physchem): 2.53
CCC/C=C/CO [(2E)-2-hexen-1-ol] | -0.2 | -21.91 | – | chromatographic logP (physchem): 1.73
CC(C)c1ccc(CO)cc1 [4-isopropyl-1-benzenemethanol] | 1.3 | -36.04 | – | chromatographic logP (physchem): 2.23
C=C/C(C)=C\CC1OC1(C)C (racemic) [(+-)-(2,2-dimethyl-3-[(2Z)-3-methyl-2,4-pentadien-1-yl]oxirane OR (+-)-(2,2-dimethyl-3-[(2E)-3-methyl-2,4-pentadien-1-yl]oxirane] | – | -1.45 | – | Log P (physchem): 2.92
CCCCCC1CCC(=O)O1 (racemic) [(+-)-4-nonanolide] | – | -11.24 | 2.45 | –
O=C/C=C/c1ccccc1 [(E)-3-Phenyl-2-propenal] | > 3 | -13.35 | – | log reduction at 0.5 % [1, 4]: 5.1; chromatographic logP (physchem): 1.5
CCC/C=C/COC(C)=O [(E)-2-hexenyl acetate] | – | 1.12 | 2.59 | –
C/C(C=O)=C\c1ccccc1 [(2E)-2-methyl-3-phenyl-2-propenal] | – | -12.17 | – | log reduction at 0.5 % [1, 4]: 3.7; chromatographic logP (physchem): 2.56
N#C/C=C/c1ccccc1 [(E)-3-phenyl-2-propenenitrile] | – | -14.36 | 1.98 | –
CCCc1ccc(O)c(OC)c1 [2-methoxy-4-propyl phenol] | – | -34.16 | 2.39 | –
CC(C)(O)CCc1ccccc1 [2-methyl-4-phenyl-2-butanol] | -0.4 | -24.94 | 2.69 | –
OC/C=C/c1ccccc1 [(2E)-3-phenyl-2-propen-1-ol] | 0.1 | < -28.19 | – | chromatographic logP (physchem): 1.79
CCCCCCC1CCC(=O)O1 (racemic) [(+-)-4-decanolide] | 0.2 ± 0.3 | -4.96 | 3.02 | Log reduction (Log CFU/mL) Base 3 [1, 6]: 0.6 Log CFU/mL; Log reduction (Log CFU/mL) Base 4 [1, 6]: 0.25 Log CFU/mL; log reduction at 0.5 % [1, 7]: 0
C=CCc1ccc(O)c(OC)c1 [2-methoxy-4-(2-propen-1-yl)phenol] | 0.2 | -31.24 | 2.14 | –
CC1=C(C=O)C(C)(C)CC=C1 [2,6,6-trimethyl-1,3-cyclohexadiene-1-carbaldehyde] | – | -6.62 | 2.57 | –
c1ccc2[nH]ccc2c1 [indole] | – | <-24.93 | 1.74 | log reduction at 0.5 % ([1]; read-out: Log reduction in Base 1 (Log CFU/mL)): 1.9
